{"source": "paper PMC5835287", "about": "“Synthesis, Characterization, and BSA-Binding Studies of Novel Sulfonated Zinc-Triazine Complexes” (Bioinorganic Chemistry and Applications, 2018)", "molecular_target": "T1, bovine serum albumin (BSA) (Bos taurus, UniProt P02769)", "T1 construct": "gene ALB", "T1 sequence (P02769 25-607)": "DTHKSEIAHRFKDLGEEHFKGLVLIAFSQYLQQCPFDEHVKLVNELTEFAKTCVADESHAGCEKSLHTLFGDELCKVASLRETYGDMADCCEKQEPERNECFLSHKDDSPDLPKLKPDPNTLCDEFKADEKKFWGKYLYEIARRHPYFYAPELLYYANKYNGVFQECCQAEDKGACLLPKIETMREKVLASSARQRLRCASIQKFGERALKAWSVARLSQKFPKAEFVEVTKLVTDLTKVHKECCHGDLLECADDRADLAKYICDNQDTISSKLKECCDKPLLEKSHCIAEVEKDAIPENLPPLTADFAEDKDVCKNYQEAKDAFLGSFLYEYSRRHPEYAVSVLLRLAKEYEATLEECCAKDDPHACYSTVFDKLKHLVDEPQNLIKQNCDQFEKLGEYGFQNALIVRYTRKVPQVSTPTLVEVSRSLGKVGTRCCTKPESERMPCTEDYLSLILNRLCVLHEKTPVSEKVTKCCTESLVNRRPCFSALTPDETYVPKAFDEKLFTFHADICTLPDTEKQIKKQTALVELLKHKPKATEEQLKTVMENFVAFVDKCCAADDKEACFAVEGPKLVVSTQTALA", "assay": "UV absorbance titration at […] nm (binding constant Kb from […]/(A-A0) vs […]/[C] plot)", "conditions": "read-out: UV absorbance titration at 280 nm (binding constant Kb from 1/(A-A0) vs 1/[C] pl) (converted)", "note": "Structures can show the parent of a compound that is named as a salt.", "data": [{"compound": "O=S(=O)(O)c1ccc(-c2nnc(-c3ccccn3)nc2-c2ccc(S(=O)(=O)O)o2)o1", "note": "[L1, 3-(2-pyridyl)-5,6-di(2-furyl)-1,2,4-triazine-5′,5″-disulfonic acid disodium salt]", "values": [{"measurement": "Kd", "value": 32.4, "unit": "µM"}]}]}
